Data reported in patent publication US11530220B2, “Substituted imidazo[1,5-a]pyrazines and [1,2,4]triazolo[4,3-a]pyrazines for the modulation of AhR” (IDEAYA BIOSCIENCES, INC., priority 2018, dated 2022).
Like-named read-outs stand apart in the source and are kept apart here.

Target: T1, hAhR (Homo sapiens, UniProt P35869)
T1 construct: Stably integrated DRE-luciferase cell lines were generated by transducing the both cell lines with Cignal XRE luciferase reporter (Qiagen) lentiviral particles; endogenous in cells; host or cells: HEPG2 (human hepatoma) with stably integrated XRE/DRE-luciferase reporter
T1 sequence (P35869 11-848): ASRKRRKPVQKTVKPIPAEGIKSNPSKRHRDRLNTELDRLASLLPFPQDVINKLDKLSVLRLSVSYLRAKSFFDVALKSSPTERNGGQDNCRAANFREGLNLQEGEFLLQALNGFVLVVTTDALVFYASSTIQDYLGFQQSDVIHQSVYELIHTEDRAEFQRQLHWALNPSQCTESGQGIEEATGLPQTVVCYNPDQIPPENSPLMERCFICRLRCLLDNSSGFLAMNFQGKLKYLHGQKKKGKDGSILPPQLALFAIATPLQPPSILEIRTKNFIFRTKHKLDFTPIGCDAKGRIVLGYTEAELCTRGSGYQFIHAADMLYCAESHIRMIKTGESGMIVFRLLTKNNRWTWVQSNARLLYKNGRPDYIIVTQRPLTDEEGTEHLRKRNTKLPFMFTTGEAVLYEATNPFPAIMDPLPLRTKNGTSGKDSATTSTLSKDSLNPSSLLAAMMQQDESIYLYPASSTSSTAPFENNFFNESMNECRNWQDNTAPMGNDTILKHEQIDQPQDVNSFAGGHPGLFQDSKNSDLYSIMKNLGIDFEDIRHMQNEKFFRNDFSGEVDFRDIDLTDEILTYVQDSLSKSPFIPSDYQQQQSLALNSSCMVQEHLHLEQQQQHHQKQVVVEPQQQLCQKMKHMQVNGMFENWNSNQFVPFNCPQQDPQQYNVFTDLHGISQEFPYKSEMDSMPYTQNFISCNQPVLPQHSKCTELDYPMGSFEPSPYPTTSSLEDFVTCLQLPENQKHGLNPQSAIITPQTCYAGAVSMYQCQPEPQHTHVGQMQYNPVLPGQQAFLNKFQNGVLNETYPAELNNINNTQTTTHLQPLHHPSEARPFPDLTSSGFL
Experiment: DRE-luciferase transcriptional assay, antagonist mode, in HEPG2 DRE-Luc cells stimulated with TCDD
Type: cell-based
Settings: for Emax: read-out: HEPG2 % Max Inhibition; for IC50: relative IC50, read-out: IC50 hAhR (antagonist mode)
Experimental: HEPG2 and HEPA1C1C7 cells were maintained in MEM and αMEM without nucleosides supplemented with 10% heat inactivated FBS respectively. Stably integrated DRE-luciferase cell lines were generated by transducing the both cell lines with Cignal XRE luciferase reporter (Qiagen) lentiviral particles according to the manufacturer protocol. For both cell lines stably integrated reporter cell lines were selected for the presence of 2 μg/mL puromycin. Following selection of stably integrated cell line pools, clonal cell lines were isolated by limiting dilution in 96-well plates. Transcriptional assays were performed by seeding 100 μL of cells at a density of 250,000 or 100,000 cells/mL, for HEPG2 and HEPA1C1C7 DRE-Luc cells respectively, into 96-well cell culture plates in OptiMEM supplemented with 0.5% heat inactivated FBS and allowed to attach overnight. For antagonist assays, the compounds were added in a semi-log dose response using a D300e Digital Dispenser (Tecan) followed normalization with vehicle (DMSO). Immediately following compound addition […] of 2,3,7,8-Tetrachlorodibenzo-p-dioxin (TCDD) was added to the cells to a final concentration of 3 nM or 0.3 nM for the HEPG2 and HEPA1C1C7 DRE-Luc cells respectively. Following 24 h incubation the medium was removed and the cells were lysed in 25 μL of Reporter Lysis Buffer (Promega). Firefly luciferase activity was measured immediately following the addition of 50 μL Luciferase Assay Reagent (Promega). The percent maximal activity for each point was determined using the following equation: 100−(RLUsample−RLUvehicle−TCDD)/(RLUvehicle+TCDD RLUvehicle−TCDD)*100. The relative IC50, defined as the compound concentration required to reduce the TCDD induced response between the top and bottom plateau of each individual dose response curve by half, for each compound was determined using Prism 7 (GraphPad Software).

[1] = HEPG2 DRE-Luc cells, 3 nM TCDD, 24 h incubation

| SMILES | Emax [1] | IC50 [1] | Emax (HepG2, 24 h) |
| --- | --- | --- | --- |
| Cc1nccn1-c1cn2c(C(C)C)cnc2c(NCc2ccc(C(N)=O)cc2)n1 [Example 31, 4-({[3-isopropyl-6-(2-methylimidazolyl)-4-hydroimidazo[1,2-a]pyrazin-8-yl]amino}methyl)benzamide] | 31% | 1000 to 10000 nM | – |
| Cc1nccn1-c1cn2c(C(C)C)cnc2c(OCCc2c[nH]c3ccccc23)n1 [Example 32, 8-(2-indol-3-ylethoxy)-3-(methylethyl)-6-(2-methylimidazolyl)-4-hydroimidazo[1,2-a]pyrazine] | 100% | 200 to 500 nM | – |
| Cc1nccn1-c1cn2c(C(C)C)cnc2c(NCc2cccc(C(N)=O)c2)n1 [Example 23, 3-({[3-isopropyl-6-(2-methylimidazolyl)-4-hydroimidazo[1,2-a]pyrazin-8-yl]amino}-methyl)benzamide] | 12% | 1000 to 10000 nM | – |
| Cc1cncc(-c2cn3c(C(C)C)nnc3c(NCCc3ccc(O)cc3)n2)c1 [Example 1] | 100% | 500 to 1000 nM | – |
| Cc1nccn1-c1cn2c(C(C)C)cnc2c(N[C@@H](C)Cc2c[nH]c3ccccc23)n1 [Example 17b, ((1S)-2-indol-3-yl-isopropyl)[3-isopropyl-6-(2-methylimidazolyl)(4-hydroimidazo[1,2-a]-pyrazin-8-yl)]amine] | 81.3% | 1000 to 10000 nM | – |
| Cc1nccn1-c1cn2c(C(C)C)cnc2c(NCCc2c[nH]c3cccc(F)c23)n1 [Example 14, [2-(4-fluoroindol-3-yl)ethyl][3-isopropyl-6-(2-methylimidazolyl)(4-hydroimidazo[1,2-a]-pyrazin-8-yl)]amine] | 100% | < 200 nM | – |
| CC(C)c1cnc2c(NCCc3c[nH]c4cccc(F)c34)nc(-c3cncc(F)c3)cn12 [Example 24] | – | < 200 nM | 100% |
| CC(CO)c1cnc2c(NCCc3c[nH]c4cccc(F)c34)nc(-c3cncc(F)c3)cn12 (stereo not shown) [Example 21, 2-(6-(5-fluoro-(3-pyridyl))-8-{[2-(4-fluoroindol-3-yl)ethyl]amino}-4-hydroimidazo[1,2-a]pyrazin-3-yl)propan-1-ol] | – | < 200 nM | 100% |
| Cc1nccn1-c1cn2c(C(C)C)cnc2c(NCCc2c[nH]c3cc(F)ccc23)n1 [Example 12, [2-(6-fluoroindol-3-yl)ethyl][3-isopropyl-6-(2-methylimidazolyl)(4-hydroimidazo[1,2-a]pyrazin-8-yl)]amine] | 100% | < 200 nM | – |
| Cc1nccn1-c1cn2c(C(C)C)cnc2c(NCCc2c[nH]c3cccnc23)n1 [Example 15, [3-isopropyl-6-(2-methylimidazolyl)(4-hydroimidazo[1,2-a]pyrazin-8-yl)](2-pyrrolo[3,2-b]pyridin-3-ylethyl)amine] | 73% | 1000 to 10000 nM | – |
| Cc1cncc(-c2cn3c(C(C)C)ncc3c(NCCc3ccc(O)cc3)n2)c1 [Example 10, 4-(2-{[6-(5-methyl(3-pyridyl))-3-isopropyl-4-hydroimidazo[1,5-a]pyrazin-8-yl]amino}ethyl)phenol] | – | 1000 to 10000 nM | 47% |
| Cc1nccn1-c1cn2c(C(C)C)cnc2c(NCCc2cc[nH]c2)n1 [Example 18, [3-isopropyl-6-(2-methylimidazolyl)(4-hydroimidazo[1,2-a]pyrazin-8-yl)](2-pyrrol-3-ylethyl)amine] | 77% | 1000 to 10000 nM | – |
| Cc1nccn1-c1cn2c(C(C)C)cnc2c(NCCc2c[nH]c3c(F)cccc23)n1 [Example 11, [2-(7-fluoroindol-3-yl)ethyl][3-isopropyl-6-(2-methylimidazolyl)(4-hydroimidazo[1,2-a]pyrazin-8-yl)]amine] | – | < 200 nM | 100% |
| CC(C)c1cnc2c(NCCn3cnc4ccccc43)nc(-c3cncc(F)c3)cn12 [Example 30, (2-benzimidazolylethyl)[6-(5-fluoro(3-pyridyl))-3-isopropyl(4-hydroimidazo[1,2-a]pyrazin-8-yl)]amine] | – | 1000 to 10000 nM | 94% |
| Cc1nccn1-c1cn2c(C(C)C)cnc2c(NCCc2c[nH]c3ncccc23)n1 [Example 16, [3-isopropyl-6-(2-methylimidazolyl)(4-hydroimidazo[1,2-a]pyrazin-8-yl)](2-pyrrolo[2,3-b]pyridin-3-ylethyl)amine] | 83% | 1000 to 10000 nM | – |
| CC(C)c1nnc2c(NCCc3ccc(O)cc3)nc(-c3cncc(C#N)c3)cn12 [Example 2, 5-(8-{[2-(4-hydroxyphenyl)ethyl]amino}-3-isopropyl-4-hydro-1,2,4-triazolo[4,3-a]pyrazin-6-yl)pyridine-3-carbonitrile] | 100% | < 200 nM | – |

More lines, main results first:

| Emax [1] | IC50 [1] | SMILES | Emax (HepG2, 24 h) |
| --- | --- | --- | --- |
| 100% | < 200 nM | Cc1cncc(-c2cn3c(C(C)C)cnc3c(NCCc3c[nH]c4ccccc34)n2)c1 [Example 7, (2-indol-3-ylethyl)[6-(5-methyl(3-pyridyl))-3-isopropyl-(4-hydroimidazo[1,2-a]pyrazin-8-yl)]amine] | – |
| 100% | < 200 nM | CC(C)c1cnc2c(NCCc3c[nH]c4ccccc34)nc(-c3cncc(C#N)c3)cn12 [Example 8, 5-{8-[(2-indol-3-ylethyl)amino]-3-isopropyl-4-hydroimidazo[1,5-a]pyrazin-6-yl}pyridine-3-carbonitrile] | – |
| 100% | < 200 nM | CC(C)c1cnc2c(NCCn3c(=O)[nH]c4ccccc43)nc(-c3cncc(F)c3)cn12 [Example 19] | – |
| 100% | < 200 nM | Cc1cncc(-c2cn3c(C(C)C)nnc3c(NCCc3c[nH]c4ccccc34)n2)c1 [Example 3] | – |
| 100% | < 200 nM | CC(C)c1cnc2c(NCCc3n[nH]c4ccccc34)nc(-c3cncc(F)c3)cn12 [Example 20] | – |
| 100% | 200 to 500 nM | Cc1cncc(-c2cn3c(C(C)C)ncc3c(NCCc3c[nH]c4ccccc34)n2)c1 [Example 9] | – |
| 100% | < 200 nM | CC(C)c1cnc2c(NCCc3c[nH]c4cccc(F)c34)nc(-c3cnn(C)c3)cn12 [Example 25, [2-(4-fluoroindol-3-yl)ethyl][3-isopropyl-6-(1-methylpyrazol-4-yl)(4-hydroimidazo[1,2-a]-pyrazin-8-yl)]amine] | – |
| 100% | 200 to 500 nM | CC(C)c1cnc2c(NCCc3ccc(O)cc3)nc(-c3cncc(C#N)c3)cn12 [Example 6, 5-(8-{[2-(4-hydroxyphenyl)ethyl]amino}-3-isopropyl-4-hydroimidazo[1,2-a]pyrazin-6-yl)pyridine-3-carbonitrile] | – |
| 98% | 200 to 500 nM | Cc1ncc(-c2cn3c(C(C)C)cnc3c(NCCc3c[nH]c4cccc(F)c34)n2)cc1F [Example 26] | – |
| 100% | 200 to 500 nM | Cc1ncc(-c2cn3c(C(C)C)cnc3c(NCCc3c[nH]c4cccc(F)c34)n2)cn1 [Example 27, [2-(4-fluoroindol-3-yl)ethyl][3-isopropyl-6-(2-methylpyrimidin-5-yl)(4-hydroimidazo[1,2-a]pyrazin-8-yl)]amine] | – |
| 100% | < 200 nM | CC(C)c1nnc2c(NCCc3c[nH]c4ccccc34)nc(-c3cncc(C#N)c3)cn12 [Example 4, 5-{8-[(2-indol-3-ylethyl)amino]-3-isopropyl-4-hydro-1,2,4-triazolo[4,3-a]pyrazin-6-yl}pyridine-3-carbonitrile] | – |
| 65% | 500 to 1000 nM | Cc1cncc(-c2cn3c(C(C)C)cnc3c(NCCc3ccc(O)cc3)n2)c1 [Example 5] | – |
| 33% | 500 to 1000 nM | CC(C)c1cnc2c(NCc3cccc4[nH]ccc34)nc(-c3cncc(F)c3)cn12 [Example 28] | – |
